Laboratory results taken from patent US11433053B2, “LSD1 inhibitor and preparation method and application thereof” (CSPC ZHONGQI PHARMACEUTICAL TECHNOLOGY (SHIJIAZHUANG) CO., …, priority 2017, dated 2022).

How the values were obtained:
[1] = system: human small cell lung cancer NCI-H1417 cells subcutaneous xenograft tumor; experiment: In vivo pharmacodynamic study, NCI-H1417 subcutaneous xenograft tumor CB-17 SCID mouse model; design: species or system CB-17 SCID mice
Method: The purpose of this experiment was to investigate the efficacy of some of the compounds of the present invention in the in vivo xenograft tumor of human small cell lung cancer NCI-H1417 cells in a CB-17 SCID mouse model.
Week age and weight: 6-8 weeks old, weight 18-23 g
Human small cell lung cancer NCI-H1417 cells were cultured in vitro in a single layer cultured in RPMI-1640 medium (Sigma-aldrich, R0883), supplemented with 10% fetal bovine serum and cultured at 37° C. 5% CO2. When the cell saturation is 80%-90%. The cells are harvested, counted, and inoculated.
0.2 mL of 10×10^6 (NCI-H1417 cells were subcutaneously inoculated into the right back of each mouse (PBS:Matrigel=1:1). After 21 days of tumor inoculation, group administration was started when the average volume reached 107 mm^3.
The experimental solvent was the 10% hydroxypropyl-β-cyclodextrin solution. The preparation method was as follows: 100 g of hydroxypropyl-β-cyclodextrin was weighed into a 1000 mL jar, 800 mL of ultrapure water was added, stirred overnight until completely dissolved, and then made up to 1000 mL. The test substance was dissolved in a solvent, and was prepared into a uniform solution of a certain concentration and stored at 4° C.
The experimental indicator is to investigate whether tumor growth is inhibited, delayed or cured. Tumor diameters were measured twice a week using vernier calipers. The tumor volume is calculated as: V=0.5a×b^2, and a and b represent the long and short diameters of the tumor, respectively.
The antitumor effect of the compound was evaluated by TG (%). TGI (%), reflecting the tumor growth inhibition rate. TGI (%) calculation: TGI (%)=[1−(the average tumor volume at the end of a treatment group−the average tumor volume at the beginning of the treatment group)/(the average tumor volume at the end of the treatment of the solvent control group−The average tumor volume at the start of treatment in the solvent control group) was ×100%. Solvent control: Vehicle (10% hydroxypropyl-β-cyclodextrin solution).

human LSD1 = human LSD1 (Homo sapiens (Human), UniProt O60341); experiment: Evaluation of enzyme activity: LSD1 fluorescence coupling enzyme assay (HRP/Amplex Red); type: biochemical; conditions: human LSD1, histone H3(1-21)K4me2 peptide 10 μM, 30 min pre-incubation
How it was run: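 Human LSD1 preincubated 30 min with compound, then reacted with H3(1-21)K4me2 peptide (10 μM). FAD-dependent H2O2 detected via HRP/Amplex Red fluorescence (Ex/Em 535/590). Ten-dose, 3-fold dilutions in duplicate from 10 μM gave IC50s, binned into activity classes.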

H1417 cells = experiment: Cell proliferation inhibitory activity on H1417 cells (CellTiter-Glo, 10 days); type: cell-based, human; conditions: for IC50: 10 days incubation; for Emax: NCI-H1417, H1417 cells, read-out: Maximum inhibition percentage (%)
How it was run: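 H1417 cells in RPMI 1640 with fetal bovine serum were treated with 10-point 3-fold compound dilutions for 10 days. Viability was read by CellTiter-Glo luminescence. IC50 came from a four-parameter fit of percent inhibition, and maximal inhibition was also categorized.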

[2] = Pharmacokinetic evaluation in C57BL/6 mice after intravenous and oral administration; type: in vivo; conditions: male, mouse, plasma; for Cmax / clearance / half-life / Vd: IV 1 mg/kg; for Cmax: oral 2 mg/kg, route of Cmax not stated, read-out: max concentration Cmax; for clearance: read-out: clearance CL; for half-life: read-out: half-life T1/2 (IV, h) (converted); for Vd: read-out: volumes of distribution Vdss; for bioavailability: PO 2 mg/kg vs IV 1 mg/kg, read-out: bioavailability F (%); for AUC(0-t): PO 2 mg/kg, read-out: the area under the plasma concentration-time curve AUC0-last PO
Method: Experimental purposes: To test the pharmacokinetics of compounds in C57BL/6 mice
C57BL/6 mice (male, 7-9 weeks old, Shanghai Slack)
Test the pharmacokinetics characteristics of rodents after intravenous and oral administration in accordance with standard protocols, and the candidate compound was formulated into a clear solution in the experiment. The mice were administered by intravenous injection and orally once. The intravenous and oral vehicle is a 10% aqueous solution of hydroxypropyl β-cyclodextrin or a physiological saline solution. Six male C57BL/6 mice were employed in this assay, three of them were administered intravenously at a dose of 1 mg/kg, plasma samples were collected at 0 h (before administration) and 0.0833, 0.25, 0.5, 1, 2, 4, 7, 24 h after administration. Another three mice were administered by oral gavage at a dose of 2 mg/kg, plasma samples were collected at 0 h (before administration) and 0.5, 1, 2, 3, 4, 6, 24 h after administration. Collect whole blood samples within 24 hours, centrifuge at 3000 g for 15 minutes, separate the supernatant to obtain a plasma sample, 4 times volume of the internal standard acetonitrile solution was added to precipitate the protein. Centrifuge the supernatant and add an equal volume of water and centrifuge to take the supernatant. LC-MS/MS was used to quantitatively analyze plasma concentrations and calculate pharmacokinetic parameters such as max concentration (Cmax), clearance (CL), half-life (T1/2), volumes of distribution (Vdss), the area under the plasma concentration-time curve (AUC0-last), bioavailability (F), etc.

hERG potassium channel = hERG potassium channel (Homo sapiens (Human), UniProt Q12809); experiment: Assay on inhibiting hERG potassium channel (automatic patch clamp, CHO-hERG cells); type: cell-based; conditions: Qpatch, max test concentration 40 μM
hERG potassium channel, sequence (Q12809 whole entry): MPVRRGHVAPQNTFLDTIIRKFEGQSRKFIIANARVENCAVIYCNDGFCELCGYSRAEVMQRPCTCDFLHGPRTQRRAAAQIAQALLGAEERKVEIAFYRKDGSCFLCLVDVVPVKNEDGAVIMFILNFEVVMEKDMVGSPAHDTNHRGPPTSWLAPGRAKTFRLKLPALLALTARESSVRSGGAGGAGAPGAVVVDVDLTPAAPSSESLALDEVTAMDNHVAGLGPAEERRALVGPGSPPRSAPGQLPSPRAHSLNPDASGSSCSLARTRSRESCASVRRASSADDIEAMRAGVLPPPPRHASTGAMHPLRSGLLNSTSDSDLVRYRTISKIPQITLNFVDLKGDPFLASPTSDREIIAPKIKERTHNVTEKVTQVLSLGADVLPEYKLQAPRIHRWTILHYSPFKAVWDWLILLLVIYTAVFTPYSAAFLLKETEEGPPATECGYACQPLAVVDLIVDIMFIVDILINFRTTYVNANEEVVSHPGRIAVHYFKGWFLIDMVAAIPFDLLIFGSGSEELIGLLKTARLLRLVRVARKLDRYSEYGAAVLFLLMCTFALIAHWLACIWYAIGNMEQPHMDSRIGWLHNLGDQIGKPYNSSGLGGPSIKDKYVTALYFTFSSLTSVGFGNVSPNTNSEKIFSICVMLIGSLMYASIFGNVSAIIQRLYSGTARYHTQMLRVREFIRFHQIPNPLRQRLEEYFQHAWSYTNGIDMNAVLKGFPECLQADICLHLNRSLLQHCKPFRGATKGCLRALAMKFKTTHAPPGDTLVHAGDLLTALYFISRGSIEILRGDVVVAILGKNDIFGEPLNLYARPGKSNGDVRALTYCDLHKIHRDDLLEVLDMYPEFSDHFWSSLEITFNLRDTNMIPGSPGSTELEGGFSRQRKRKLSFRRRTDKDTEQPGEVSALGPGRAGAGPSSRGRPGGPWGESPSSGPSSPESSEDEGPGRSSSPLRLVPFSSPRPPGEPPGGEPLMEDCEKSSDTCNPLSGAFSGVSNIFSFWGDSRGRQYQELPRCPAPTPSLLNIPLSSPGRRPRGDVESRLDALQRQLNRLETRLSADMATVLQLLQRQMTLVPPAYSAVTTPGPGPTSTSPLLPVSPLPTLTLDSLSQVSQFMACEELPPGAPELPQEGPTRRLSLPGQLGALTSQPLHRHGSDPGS
Method: Experimental purpose: Using automatic patch clamp method to detect the effect of the sample to be tested on hERG potassium channel.
4.1.1 CHO-hERG cells were cultured in 175 cm^2 flasks. When the cell density was increased to 60-80%, the culture solution was removed and the resultant was washed with 7 mL PBS (Phosphate Buffered Saline phosphate buffer), then 3 mL of digestive juice was added to digest.
4.1.2 After the digestion finished, 7 mL culture solution was added to neutralize. Then centrifuge, aspirate the supernatant, and then resuspend by adding 5 mL culture solution to ensure a cell density of 2-5×10^6/mL.
Single cell high impedance sealing and whole cell pattern formation were all done automatically by the Qpatch instrument. After the whole-cell recording mode was obtained, the cells were clamped at −80 mV. 50-Millisecond−50 mV preamplifier was applied prior to a 5 second+40 mV depolarization stimulus. Then the voltage was repolarized to −50 mV for 5 seconds and back to −80 mV. This voltage stimulation was applied every 15 seconds, and the extracellular fluid was recorded over 5 minutes after 2 minutes' record, and then the administration process was started. The compound concentration was started from the lowest test concentration, and each test concentration was given for 2.5 minutes. Test at least 3 cells (n≥3) for each concentration.
4.4.1 Dilute 20 mM mother liquor of the compound with extracellular fluid 5 μL of 20 mM mother liquor of the compound was added to 2495 μL extracellular fluid, and the mixture was 500-fold diluted to 40 μM. Then 0.2% DMSO in extracellular fluid was 3-fold diluted sequentially to obtain the final concentration to be tested.
4.4.2 The max test concentration was 40 μM, 6 concentrations were 40, 13.33, 4.44, 1.48, 0.49, and 0.16 μM respectively.
Experimental data was analyzed by XLFit software.

[3] = 1 mg/kg, ip, BIW, day 28 after administration
[4] = 1 mg/kg, ip, BIW, day 34 after administration
[5] = Homo sapiens, NCI-H1417, 240 h, H1417 cells
[6] = Homo sapiens, highest percentage inhibition of cell viability
[7] = 1.5 mg/kg, PO, QD, day 27 after administration
[8] = 5 mg/kg, PO, QD, day 34 after administration
[9] = 2.5 mg/kg, PO, BID, day 34 after administration

SMILES	IC50 (human LSD1) [nM]	IC50 (H1417 cells; [5]) [nM]	Emax (H1417 cells; [6]) [%]	Cmax [2] [ng/mL]	clearance [2] [mL/min/kg]	half-life [2] [h]	Vd [2] [L/kg]	bioavailability [2] [%]	AUC(0-t) [2] [µM·h]	further results
N.N.[Cl][Pt][Cl] [Cisplatin]										TGI (%) [1, 3]: 90%; Tumor volume (mm^3) (Day 28) [1, 3]: 150 ± 9 mm^3; TGI (%) [1, 4]: 61.2%; Tumor volume (mm^3) (Day 34) [1, 4]: 328 ± 37 mm^3
O=C(O)[C@@H]1CCCN1CC1(CN[C@H]2CC2c2ccccc2)CC1 (stereo partly shown) [Example 210]	≤ 50	500 to 1000	50 to 70	815	37.7	2.7	2.6	40.5	1.13	
NC12CCC(c3nc(C4(CN[C@@H]5C[C@H]5c5ccccc5)CC4)no3)(CC1)CC2 [Example 155]	≤ 50	100 to 500	90 to 100							IC50 (hERG potassium channel): > 40000 nM; TGI (%) [1, 7]: 78.7%; Tumor volume (mm^3) (Day 27) [1, 7]: 200 ± 15 mm^3
N[C@H]1C[C@H](c2nc(C3(CN[C@@H]4C[C@H]4c4ccccc4)CC3)no2)C1 [Example 146]	≤ 50	500 to 1000	90 to 100							IC50 (hERG potassium channel): > 40000 nM
N[C@H]1CC[C@H](c2nc(C3(CN[C@H]4C[C@@H]4c4ccccc4)CC3)no2)CC1 [Example 143]	50 to 100									IC50 (H1417 cells; H1417 cells): 500 to 1000 nM; Maximum inhibition percentage (%) (H1417 cells; H1417 cells, highest percentage inhibition of cell viability): C (70%>C≥50%); TGI (%) [1, 8]: 93.3%; Tumor volume (mm^3) (Day 34) [1, 8]: 145 ± 29 mm^3
N[C@H]1CC[C@H](c2noc(C3(CN[C@@H]4C[C@H]4c4ccccc4)CC3)n2)CC1 [Example 242]	≤ 50	≤ 100	90 to 100	179	72.1	2	10.3	57.5	0.712	
NC1CC2(C1)CC(c1nc(C3(CN[C@@H]4C[C@H]4c4ccccc4)CC3)no1)C2 (stereo partly shown) [Example 151]	≤ 50	100 to 500	90 to 100							TGI (%) [1, 7]: 66.3%; Tumor volume (mm^3) (Day 27) [1, 7]: 250 ± 50 mm^3
O=C(O)[C@H]1CC[C@H](c2nc(C3(CN[C@@H]4C[C@H]4c4ccccc4)CC3)no2)CC1 [Example 167]	100 to 500			5090	11.6	1.4	0.4	48.1	3.51	TGI (%) [1, 9]: 81.4%; Tumor volume (mm^3) (Day 34) [1, 9]: 213 ± 37 mm^3; TGI (%) [1, 8]: 78.2%; Tumor volume (mm^3) (Day 34) [1, 8]: 231 ± 28 mm^3
O=C(O)C1(CN2CCC(c3nc(C4(CN[C@@H]5C[C@H]5c5ccccc5)CC4)no3)CC2)CCC1 [Example 235]	100 to 500	≤ 100	70 to 90	497	62.4	0.34	0.99	28	0.37	
Clc1ccc(-c2nc(C3(CN[C@H]4CC4c4ccccc4)CC3)no2)cc1 (stereo partly shown) [Example 65]	≤ 50	100 to 500	90 to 100	2070	10.6	4.2	3	49	3.38	
N[C@H]1CC[C@H](c2nc(C3(CN[C@H]4CC4c4ccccc4)CC3)no2)CC1 (stereo partly shown) [Example 142]	≤ 50	500 to 1000	70 to 90							TGI (%) [1, 8]: 94.9%; Tumor volume (mm^3) (Day 34) [1, 8]: 136 ± 21 mm^3
FC(F)(F)c1ccc(-c2nc(C3(CN[C@H]4CC4c4ccccc4)CC3)no2)cn1 (stereo partly shown) [Example 66]	≤ 50	500 to 1000	90 to 100	2140	13.1	1.5	1.4	57	3.51	
CN[C@H]1CC[C@H](c2nc(C3(CN[C@@H]4C[C@H]4c4ccccc4)CC3)no2)CC1 [Example 232]	50 to 100	500 to 1000	70 to 90							IC50 (hERG potassium channel): > 40000 nM; TGI (%) [1, 7]: 51.1%; Tumor volume (mm^3) (Day 27) [1, 7]: 313 ± 28 mm^3
